Data published in patent publication US5100905A, “Method for inhibiting growth of bacteria, fungi or algae by treatment with biocide composition” (Rohm and Haas Company, priority 1991, dated 1992).

Tested on: mixture of the following 12 microorganisms: Escherichia coli, Candida albicans, Pseudomonas oleovarans, Pseudomonas aeruginosa, Staphylococcus aureus …
Experiment: Growth inhibition / minimum inhibitory concentration (MIC) by 2-fold serial dilutions in Trypticase Soy Broth, 3 inoculations; as to Growth after inoculation: key: -: growth inhibited; +: growth not inhibited
Type: cell-based
Description: Each single culture was inoculated to TSB agar slants and incubated for 2 days at 30° C. for C. albicans and all bacteria except E. coli and S. aureus, which were at 37° C., and incubated for 10-14 days at 25° C. for fungal cultures. The bacteria and fungi were then washed off the slants with phosphate buffer (0.125 M, pH 7.2) and inoculated into each test tube containing a given concentration and ratio of 573 and 886 to make final cell concentration of about 2×10^7 bacteria and 2×10^6 fungi per ml. […] Seven days after inoculation, 5 microliter of sample from each test tube (containing about 10^5 bacteria and 10^4 fungi from original inoculation) was removed and assessed for viable organisms by 1:50 dilution into TSB medium and checked for regrowth. No viable organisms were detected from the test tubes where MICs were observed. […] Each test tube was reinoculated 2 more times (a total of 3 inoculations) to determine the capacity and the longlasting activity of the combinations.
As shown, a wide range of concentration and ratios was tested. More importantly all the critical end-point activities for the combinations were covered. […] Thus, the end-point activities are based on the minimum concentrations of a given ratio of combination product that inhibit all three inoculations.

Cn1sccc1=O [compound 573, 2-methyl-4-isothiazolin-3-one] was tested, and the Growth after inoculation (Expt. 1, 1st inoculation, 573(A) 0.5 ppm) was “+”, the Growth after inoculation (Expt. 1, 1st inoculation, 573(A) 1.0 ppm) was “+” and the Growth after inoculation (Expt. 1, 1st inoculation, 573(A) 2.0 ppm) was “+”. For the same compound, the Growth after inoculation (Expt. 1, 1st inoculation, 573(A) 3.9 ppm) was “+”, the Growth after inoculation (Expt. 1, 1st inoculation, 573(A) 9.8 ppm) was “+” and the Growth after inoculation (Expt. 1, 1st inoculation, 573(A) 15.6 ppm) was “+”. The Growth after inoculation (Expt. 1, 1st inoculation, 573(A) 31.2 ppm) was “+”, the Growth after inoculation (Expt. 1, 1st inoculation, 573(A) 62.5 ppm) was “+” and the Growth after inoculation (Expt. 1, 1st inoculation, 573(A) 125.0 ppm) was “+”. The Growth after inoculation (Expt. 1, 1st inoculation, 573(A) 250.0 ppm) was “-”, the Growth after inoculation (Expt. 1, 1st inoculation, 573(A) 500.0 ppm) was “-” and the Growth after inoculation (Expt. 1, 2nd inoculation, 573(A) 0.5 ppm) was “+”. The Growth after inoculation (Expt. 1, 2nd inoculation, 573(A) 1.0 ppm) was “+”, the Growth after inoculation (Expt. 1, 2nd inoculation, 573(A) 2.0 ppm) was “+” and the Growth after inoculation (Expt. 1, 2nd inoculation, 573(A) 3.9 ppm) was “+”. For the same compound, the Growth after inoculation (Expt. 1, 2nd inoculation, 573(A) 9.8 ppm) was “+”, the Growth after inoculation (Expt. 1, 2nd inoculation, 573(A) 15.6 ppm) was “+” and the Growth after inoculation (Expt. 1, 2nd inoculation, 573(A) 31.2 ppm) was “+”. For the same compound, the Growth after inoculation (Expt. 1, 2nd inoculation, 573(A) 62.5 ppm) was “+”, the Growth after inoculation (Expt. 1, 2nd inoculation, 573(A) 125.0 ppm) was “+” and the Growth after inoculation (Expt. 1, 2nd inoculation, 573(A) 250.0 ppm) was “+”. For the same compound, the Growth after inoculation (Expt. 1, 2nd inoculation, 573(A) 500.0 ppm) was “-”, the Growth after inoculation (Expt. 1, 3rd inoculation, 573(A) 0.5 ppm) was “+” and the Growth after inoculation (Expt. 1, 3rd inoculation, 573(A) 1.0 ppm) was “+”. The Growth after inoculation (Expt. 1, 3rd inoculation, 573(A) 2.0 ppm) was “+”, the Growth after inoculation (Expt. 1, 3rd inoculation, 573(A) 3.9 ppm) was “+” and the Growth after inoculation (Expt. 1, 3rd inoculation, 573(A) 9.8 ppm) was “+”. The Growth after inoculation (Expt. 1, 3rd inoculation, 573(A) 15.6 ppm) was “+”, the Growth after inoculation (Expt. 1, 3rd inoculation, 573(A) 31.2 ppm) was “+” and the Growth after inoculation (Expt. 1, 3rd inoculation, 573(A) 62.5 ppm) was “+”. For the same compound, the Growth after inoculation (Expt. 1, 3rd inoculation, 573(A) 125.0 ppm) was “+”, the Growth after inoculation (Expt. 1, 3rd inoculation, 573(A) 250.0 ppm) was “+” and the Growth after inoculation (Expt. 1, 3rd inoculation, 573(A) 500.0 ppm) was “-”. For the same compound, the “End-point activity (MIC) Qa (573 in the mixture of 573 and 886)” value (Expt. 1, all three inoculations) was 500.0 ppm, the Growth after inoculation (Expt. 2, 1st inoculation, 573(A) 0.5 ppm) was “+” and the Growth after inoculation (Expt. 2, 1st inoculation, 573(A) 1.0 ppm) was “+”. The Growth after inoculation (Expt. 2, 1st inoculation, 573(A) 2.0 ppm) was “+”, the Growth after inoculation (Expt. 2, 1st inoculation, 573(A) 3.9 ppm) was “+” and the Growth after inoculation (Expt. 2, 1st inoculation, 573(A) 9.8 ppm) was “+”. For the same compound, the Growth after inoculation (Expt. 2, 1st inoculation, 573(A) 15.6 ppm) was “+”, the Growth after inoculation (Expt. 2, 1st inoculation, 573(A) 31.2 ppm) was “+” and the Growth after inoculation (Expt. 2, 1st inoculation, 573(A) 62.5 ppm) was “+”. For the same compound, the Growth after inoculation (Expt. 2, 1st inoculation, 573(A) 125.0 ppm) was “-”, the Growth after inoculation (Expt. 2, 1st inoculation, 573(A) 250.0 ppm) was “-” and the Growth after inoculation (Expt. 2, 1st inoculation, 573(A) 500.0 ppm) was “-”. The Growth after inoculation (Expt. 2, 2nd inoculation, 573(A) 0.5 ppm) was “+”, the Growth after inoculation (Expt. 2, 2nd inoculation, 573(A) 1.0 ppm) was “+” and the Growth after inoculation (Expt. 2, 2nd inoculation, 573(A) 2.0 ppm) was “+”. The Growth after inoculation (Expt. 2, 2nd inoculation, 573(A) 3.9 ppm) was “+”, the Growth after inoculation (Expt. 2, 2nd inoculation, 573(A) 9.8 ppm) was “+” and the Growth after inoculation (Expt. 2, 2nd inoculation, 573(A) 15.6 ppm) was “+”. The Growth after inoculation (Expt. 2, 2nd inoculation, 573(A) 31.2 ppm) was “+”, the Growth after inoculation (Expt. 2, 2nd inoculation, 573(A) 62.5 ppm) was “+” and the Growth after inoculation (Expt. 2, 2nd inoculation, 573(A) 125.0 ppm) was “-”. The Growth after inoculation (Expt. 2, 2nd inoculation, 573(A) 250.0 ppm) was “-”, the Growth after inoculation (Expt. 2, 2nd inoculation, 573(A) 500.0 ppm) was “-” and the Growth after inoculation (Expt. 2, 3rd inoculation, 573(A) 0.5 ppm) was “+”. The Growth after inoculation (Expt. 2, 3rd inoculation, 573(A) 1.0 ppm) was “+”, the Growth after inoculation (Expt. 2, 3rd inoculation, 573(A) 2.0 ppm) was “+” and the Growth after inoculation (Expt. 2, 3rd inoculation, 573(A) 3.9 ppm) was “+”. For the same compound, the Growth after inoculation (Expt. 2, 3rd inoculation, 573(A) 9.8 ppm) was “+”, the Growth after inoculation (Expt. 2, 3rd inoculation, 573(A) 15.6 ppm) was “+” and the Growth after inoculation (Expt. 2, 3rd inoculation, 573(A) 31.2 ppm) was “+”. For the same compound, the Growth after inoculation (Expt. 2, 3rd inoculation, 573(A) 62.5 ppm) was “+”, the Growth after inoculation (Expt. 2, 3rd inoculation, 573(A) 125.0 ppm) was “-” and the Growth after inoculation (Expt. 2, 3rd inoculation, 573(A) 250.0 ppm) was “-”. The Growth after inoculation (Expt. 2, 3rd inoculation, 573(A) 500.0 ppm) was “-”, the “End-point activity (MIC) Qa (573 in the mixture of 573 and 886)” value (Expt. 2, all three inoculations) was 125.0 ppm and the “Contribution to the overall activity of 886” value (at very low concentrations (<8 ppm)) was “does not contribute significantly to the overall activity of 886”.
